Columns and labels:
[1] = target: T1, BACE1 (Homo sapiens (Human), UniProt P56817); assay: In vitro enzymatic BACE1 FRET assay; assay type: biochemical; conditions: pH 4.5, read-out: BACE1 Enzyme IC50
Target sequence in this assay (P56817 46-501): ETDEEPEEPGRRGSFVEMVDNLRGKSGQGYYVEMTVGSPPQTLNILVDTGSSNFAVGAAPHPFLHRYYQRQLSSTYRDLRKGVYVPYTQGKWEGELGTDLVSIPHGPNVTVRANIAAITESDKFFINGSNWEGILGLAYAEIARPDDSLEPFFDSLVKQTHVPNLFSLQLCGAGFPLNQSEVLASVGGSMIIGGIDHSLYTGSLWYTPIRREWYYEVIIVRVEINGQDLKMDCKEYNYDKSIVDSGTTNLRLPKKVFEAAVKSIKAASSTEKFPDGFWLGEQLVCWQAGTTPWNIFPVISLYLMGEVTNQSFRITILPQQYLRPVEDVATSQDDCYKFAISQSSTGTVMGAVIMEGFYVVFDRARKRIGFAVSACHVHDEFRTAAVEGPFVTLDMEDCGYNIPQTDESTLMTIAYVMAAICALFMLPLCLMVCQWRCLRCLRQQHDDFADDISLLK

[2] = target: T1, BACE1; assay: In vitro BACE1 cell-based assay (Aβ40 in conditioned medium of cells stably expressing APP, HTRF)
Description: In Vitro BACE1 Cell-Based Assay
The cell-based assay measures inhibition or reduction of Aβ40 in conditioned medium of test compound treated cells expressing amyloid precursor protein. Cells stably expressing Amyloid Precursor Protein (APP) were plated at a density of 45K cells/well in 384 well plates (Corning/BioCoat 354663). The test compounds were then added to cells in 22-point dose response concentrations with the starting concentration being 62.5 μM. The compounds were diluted from stock solutions in DMSO and the final DMSO concentration of the test compounds on cells was 0.625%. The cells were cultivated overnight at 37° C. and 5% CO2 in DMEM supplemented with 10% FBS. After 24 h of incubation with the test compounds, the conditioned media was collected and the Aβ40 levels were determined using HTRF (Homogeneous Time Resolved Fluorescence). The IC50 of the compound was calculated from the percent of control or percent inhibition of Aβ40 as a function of the concentration of the test compound.
The HTRF to detect Aβ40 was performed in 384 well plates (Costar 3658). The antibody pair that were used to detect Aβ40 from cell supernatants were ConfAb40 antibody (Amgen in-house) and biotinylated 6E10 (BIOLEGEND). As an alternative to ConfAb40, a commercially available antibody, Anti-beta Amyloid 1-40 antibody [BDI350] from Abcam, Cambridge, Mass. 02139-1517 (Product code: ab20068), may be used in this assay. The concentrations were 0.35 μg/mL of ConfAb40 antibody and 1.33 μg/mL of 6E10-biotinylated antibody, as well as 4.5 μg/mL of Streptavidin Allophycocyanin Conjugate (ThermoFisher Scientific) in HTRF Buffer ([…], 1% BSA, 0.5% Tween 20).
The conditioned media was incubated with above antibodies and Streptavidin Allophycocyanin Conjugate for 30-60 minutes at 23° C. The final readout was performed on Envision from PerkinElmer.
Target sequence in this assay (P56817 46-501, species assumed): as the sequence (P56817 46-501) above

[3] = target: human recombinant BACE2 (Homo sapiens (Human), UniProt Q9Y5Z0); assay: In vitro enzymatic BACE2 FRET assay; assay type: biochemical; conditions: pH 4.5, read-out: BACE2 Enzyme IC50
[4] = target: Recombinant CatD (Homo sapiens (Human), UniProt P07339); assay: In vitro enzymatic Cathepsin D (CatD) FRET assay; assay type: biochemical; conditions: pH 3.5, read-out: Cat D Enzyme IC50
[5] = Aβ40, 24 h incubation, read-out: BACE1 Cell IC50

human recombinant BACE2, sequence (Q9Y5Z0 63-518): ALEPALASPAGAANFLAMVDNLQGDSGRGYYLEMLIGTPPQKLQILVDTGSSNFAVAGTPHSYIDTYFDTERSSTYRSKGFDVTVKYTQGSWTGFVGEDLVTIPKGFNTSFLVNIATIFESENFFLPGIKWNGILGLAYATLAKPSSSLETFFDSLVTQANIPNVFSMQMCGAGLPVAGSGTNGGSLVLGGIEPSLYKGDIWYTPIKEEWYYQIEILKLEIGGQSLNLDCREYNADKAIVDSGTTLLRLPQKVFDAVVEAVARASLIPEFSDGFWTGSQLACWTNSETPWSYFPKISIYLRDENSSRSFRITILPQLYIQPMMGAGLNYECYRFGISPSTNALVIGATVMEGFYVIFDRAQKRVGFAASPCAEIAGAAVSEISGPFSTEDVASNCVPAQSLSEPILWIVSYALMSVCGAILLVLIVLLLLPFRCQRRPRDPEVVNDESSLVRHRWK
Recombinant CatD, sequence (P07339 65-412): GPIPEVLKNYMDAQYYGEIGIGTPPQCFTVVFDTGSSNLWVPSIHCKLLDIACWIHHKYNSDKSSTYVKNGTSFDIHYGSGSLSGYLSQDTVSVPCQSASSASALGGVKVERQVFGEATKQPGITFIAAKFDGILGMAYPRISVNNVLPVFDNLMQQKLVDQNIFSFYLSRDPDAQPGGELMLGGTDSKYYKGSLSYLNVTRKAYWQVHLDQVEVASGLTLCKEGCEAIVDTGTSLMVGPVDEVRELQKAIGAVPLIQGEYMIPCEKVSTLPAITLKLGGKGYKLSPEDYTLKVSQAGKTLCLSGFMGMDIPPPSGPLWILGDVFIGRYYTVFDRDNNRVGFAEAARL

| SMILES | IC50 [1] [nM] | IC50 [2, 5] [nM] | IC50 [3] [nM] | IC50 [4] [nM] | IC50 [2] [nM] |
| --- | --- | --- | --- | --- | --- |
| Cc1cc(C#Cc2ccc(F)c([C@@]3(CF)N=C(N)S[C@@]4(/C=C/C(=O)N5CCOCC5)C[C@H]43)c2)sn1 [Example 118, (E)-3-((1R,5S,6S)-3-amino-5-(2-fluoro-5-((3-methylisothiazol-5-yl)ethynyl)phenyl)-5-(fluoromethyl)-2-thia-4-azabicyclo[4.1.0]hept-3-en-1-yl)-1-morpholinoprop-2-en-1-one] | 6 | 23 | 17 | 26200 | – |
| N#Cc1ccc(C#Cc2ccc(F)c([C@@]3(CF)N=C(N)S[C@@]4(CCC(=O)N5CCOCC5)C[C@H]43)c2)nc1 [Example 119, 6-((3-((1S,5S,6S)-3-amino-5-(fluoromethyl)-1-(3-morpholino-3-oxopropyl)-2-thia-4-azabicyclo[4.1.0]hept-3-en-5-yl)-4-fluorophenyl)ethynyl)nicotinonitrile] | 49 | 60 | 126 | 188000 | – |
| Cc1cc(C#N)cnc1C#Cc1ccc(F)c([C@@]2(CF)N=C(N)S[C@@]3(CCC(=O)N4CCOCC4)C[C@H]32)c1 [Example 120, 6-((3-((1S,5S,6S)-3-amino-5-(fluoromethyl)-1-(3-morpholino-3-oxopropyl)-2-thia-4-azabicyclo[4.1.0]hept-3-en-5-yl)-4-fluorophenyl)ethynyl)-5-methylnicotinonitrile] | 11 | 52 | 179 | 190000 | – |
| N#Cc1cnc(C#Cc2ccc(F)c([C@@]3(CF)N=C(N)S[C@@]4(/C=C/C(=O)N5CCOCC5)C[C@H]43)c2)nc1 [Example 121, 2-((3-((1R,5S,6S)-3-amino-5-(fluoromethyl)-1-((E)-3-morpholino-3-oxoprop-1-en-1-yl)-2-thia-4-azabicyclo[4.1.0]hept-3-en-5-yl)-4-fluorophenyl)ethynyl)pyrimidine-5-carbonitrile] | 9 | 1900 | 47 | 143000 | – |
| N#Cc1ccc(C#Cc2ccc(F)c([C@@]3(CF)N=C(N)S[C@@]4(/C=C/C(=O)N5CCOCC5)C[C@H]43)c2)cc1 [Example 122, 4-((3-((1R,5S,6S)-3-amino-5-(fluoromethyl)-1-((E)-3-morpholino-3-oxoprop-1-en-1-yl)-2-thia-4-azabicyclo[4.1.0]hept-3-en-5-yl)-4-fluorophenyl)ethynyl)benzonitrile] | 10 | 49 | 281 | 84300 | – |
| Cc1cc(C#N)cnc1C#Cc1ccc(F)c([C@@]2(C)N=C(N)S[C@@]3(C(=O)N(C)C)C[C@H]32)c1 [Example 123, (1S,5S,6S)-3-amino-5-(5-((5-cyano-3-methyl-2-pyridinyl)ethynyl)-2-fluorophenyl)-N,N,5-trimethyl-2-thia-4-azabicyclo[4.1.0]hept-3-ene-1-carboxamide] | 3 | 3 | 99 | 236000 | – |
| C#Cc1ccc(F)c([C@@]2(C)N=C(N)S[C@@]3(C(=O)N(C)C)C[C@H]32)c1 [Example 123d, (1S,5S,6S)-3-amino-5-(5-ethynyl-2-fluorophenyl)-N,N,5-trimethyl-2-thia-4-azabicyclo[4.1.0]hept-3-ene-1-carboxamide] | 378 | 328 | 142 | 50500 | – |
| N#Cc1cnc(C#Cc2ccc(F)c([C@@]3(CF)N=C(N)S[C@@]4(/C=C/C(=O)N5CCOCC5)C[C@H]43)c2)c(F)c1 [Example 124, 6-((3-((1R,5S,6S)-3-amino-5-(fluoromethyl)-1-((E)-3-morpholino-3-oxoprop-1-en-1-yl)-2-thia-4-azabicyclo[4.1.0]hept-3-en-5-yl)-4-fluorophenyl)ethynyl)-5-fluoronicotinonitrile] | 49 | 153 | 37 | 335000 | – |
| N#Cc1ccc(C#Cc2ccc(F)c([C@@]3(CF)N=C(N)S[C@@]4(Cn5ccnc5)C[C@H]43)c2)nc1 [Example 125, 6-((3-((1S,5S,6S)-1-((1H-imidazol-1-yl)methyl)-3-amino-5-(fluoromethyl)-2-thia-4-azabicyclo[4.1.0]hept-3-en-5-yl)-4-fluorophenyl)ethynyl)nicotinonitrile] | 583 | 118 | 8080 | 248000 | – |
| Cc1cc(C#N)cnc1C#Cc1ccc(F)c([C@@]2(C)N=C(N)S[C@@]3(C#N)C[C@H]32)c1 [Example 126, (1S,5S,6S)-3-amino-5-(5-((5-cyano-3-methylpyridin-2-yl)ethynyl)-2-fluorophenyl)-5-methyl-2-thia-4-azabicyclo[4.1.0]hept-3-ene-1-carbonitrile] | 21 | 75 | 617 | 268000 | – |
| Cc1cc(C#N)cnc1C#Cc1ccc(F)c([C@@]2(CF)N=C(N)S[C@@]3(C(=O)N(C)C)C[C@H]32)c1 [Example 127, (1S,5S,6S)-3-amino-5-(5-((5-cyano-3-methylpyridin-2-yl)ethynyl)-2-fluorophenyl)-5-(fluoromethyl)-N,N-dimethyl-2-thia-4-azabicyclo[4.1.0]hept-3-ene-1-carboxamide] | 2 | – | 77 | 969000 | 22 |
| Cc1cc(C#N)cnc1C#Cc1ccc(F)c([C@@]2(C)N=C(N)S[C@@]3(C(=O)N4CCCC4)C[C@H]32)c1 [Example 128, 6-((3-((1S,5S,6S)-3-amino-5-methyl-1-(pyrrolidine-1-carbonyl)-2-thia-4-azabicyclo[4.1.0]hept-3-en-5-yl)-4-fluorophenyl)ethynyl)-5-methylnicotinonitrile] | 2 | – | 423 | 508000 | 2 |
| CN(C)C(=O)[C@]12C[C@H]1[C@@](C)(c1cc(C#Cc3ccc(C#N)cc3)ccc1F)N=C(N)S2 [Example 129, (1S,5S,6S)-3-amino-5-(5-((4-cyanophenyl)ethynyl)-2-fluorophenyl)-N,N,5-trimethyl-2-thia-4-azabicyclo[4.1.0]hept-3-ene-1-carboxamide] | 7 | – | 251 | 289000 | 58 |
| C#CCOc1ccc(C#Cc2ccc(F)c([C@@]3(C)N=C(N)S[C@@]4(C(=O)N(C)C)C[C@H]43)c2)nc1 [Example 130, (1S,5S,6S)-3-amino-5-(2-fluoro-5-((5-(2-propyn-1-yloxy)-2-pyridinyl)ethynyl)phenyl)-N,N,5-trimethyl-2-thia-4-azabicyclo[4.1.0]hept-3-ene-1-carboxamide] | 161 | 152 | 432 | 926000 | – |
| Cc1cc(OCc2ncco2)cnc1C#Cc1ccc(F)c([C@@]2(C)N=C(N)S[C@@]3(C(=O)N(C)C)C[C@H]32)c1 [Example 131, (1S,5S,6S)-3-amino-5-(2-fluoro-5-((3-methyl-5-(oxazol-2-ylmethoxy)pyridin-2-yl)ethynyl)phenyl)-N,N,5-trimethyl-2-thia-4-azabicyclo[4.1.0]hept-3-ene-1-carboxamide] | 41 | 53 | 2180 | 995000 | – |
| CN(C)C(=O)[C@]12C[C@H]1[C@@](C)(c1cc(C#CC3CC3)ccc1F)N=C(N)S2 [Example 132, (1S,5S,6S)-3-amino-5-(5-(cyclopropylethynyl)-2-fluorophenyl)-N,N,5-trimethyl-2-thia-4-azabicyclo[4.1.0]hept-3-ene-1-carboxamide] | 20 | 59 | 7 | 46800 | – |
| COC[C@]12CC1[C@@](C)(c1cc(C#Cc3ccc(C#N)cn3)ccc1F)N=C(N)S2 (stereo partly drawn) [Example 133, 6-((3-((1S,5S)-3-amino-1-(methoxymethyl)-5-methyl-2-thia-4-azabicyclo[4.1.0]hept-3-en-5-yl)-4-fluorophenyl)ethynyl)nicotinonitrile] | 97 | – | 2320 | > 400000 | 59 |
| COC[C@]12CC1[C@@](C)(c1cc(C#Cc3ncc(C#N)cc3C)ccc1F)N=C(N)S2 (stereo partly drawn) [Example 135, 6-((3-((1S,5S)-3-amino-1-(methoxymethyl)-5-methyl-2-thia-4-azabicyclo[4.1.0]hept-3-en-5-yl)-4-fluorophenyl)ethynyl)-5-methylnicotinonitrile] | 23 | – | 1460 | > 400000 | 33 |

Source: patent US10889581B2, “Cyclopropyl fused thiazine derivatives as beta-secretase inhibitors and methods of use” (AMGEN INC., priority 2016, dated 2021)
